A short description of test [1]: Inhibition of CHK1 in human HT29 cells assessed as abrogation of camptothecin induced check point.
The nature of test [2]: Inhibition of CHK1 in human HT29 cells assessed as check point abrogation.

With `N#Cc1cccc(-c2cc(NC(N)=O)c(C(=O)N[C@H]3CCCNC3)s2)c1`, the EC50 in test [1] was 40 nM; in test [2], 1900 nM.

Take `N#Cc1cccc(-c2cc(C(=O)N[C@H]3CCCNC3)c(NC(N)=O)s2)c1`: the results for the EC50 in test [1] and in test [2] were 940 nM and greater than 13000 nM, respectively.

For `N#Cc1ccc(-c2cc(NC(N)=O)c(C(=O)N[C@H]3CCCNC3)s2)cc1`, the values for the EC50 in test [1] and in test [2] were 30 nM and 600 nM, respectively.

Consider `NC(=O)Nc1cc(-c2ccc(Cl)c(Cl)c2)sc1C(=O)N[C@H]1CCCNC1`, for which the EC50 worked out at 200 nM in test [1] and 5800 nM in test [2].

With `NC(=O)Nc1sc(-c2ccc(Cl)c(Cl)c2)cc1C(=O)N[C@H]1CCCNC1`, the EC50 in test [1] was 150 nM; in test [2] it was 5700 nM.

Regarding `NC(=O)Nc1cc(-c2ccc(F)cc2F)sc1C(=O)N[C@H]1CCCNC1`, the figures for the EC50 in test [1] and in test [2] were 20 nM and 1100 nM, respectively.

In the case of `NC(=O)Nc1sc(-c2ccc(F)cc2F)cc1C(=O)N[C@H]1CCCNC1`, the EC50 was 190 nM in test [1] and 1400 nM in test [2].

Turning to `NC(=O)Nc1cc(-c2cccc(F)c2F)sc1C(=O)N[C@H]1CCCNC1`, the values for the EC50 in test [1] and in test [2] were 60 nM and 1500 nM, respectively.

Consider `NC(=O)Nc1cc(-c2cc(F)cc(F)c2)sc1C(=O)N[C@H]1CCCNC1`, for which the EC50 was found to be 60 nM in test [1] and 2500 nM in test [2].

In the case of `NC(=O)Nc1sc(-c2cc(F)cc(F)c2)cc1C(=O)N[C@H]1CCCNC1`, the figures for the EC50 in test [1] and in test [2] were 30 nM and 1500 nM, respectively.

On to `NC(=O)Nc1cc(-c2cccc(Cl)c2)sc1C(=O)N[C@H]1CCCNC1`, for which the values for the EC50 in test [1] and in test [2] were 10 nM and 700 nM, respectively.

On to `NC(=O)Nc1cc(-c2ccc(F)cc2)sc1C(=O)N[C@H]1CCCNC1`, for which the EC50 in test [1] is 20 nM; in test [2] it was 13000 nM.

Take `NC(=O)Nc1cc(-c2ccccc2F)sc1C(=O)N[C@H]1CCCNC1`: the EC50 in test [1] was 20 nM; in test [2] it was 2200 nM.

Turning to `NC(=O)Nc1cc(-c2ccccc2)sc1C(=O)N[C@H]1CCCNC1`, the EC50 in test [1] amounted to 20 nM; in test [2] it was 590 nM.

As for `NC(=O)Nc1sc(-c2cccc(F)c2F)cc1C(=O)N[C@H]1CCCNC1`, the concentration for a half-maximal effect (EC50) came out at 100 nM in test [1] and 1800 nM in test [2].

Take `NC(=O)Nc1sc(-c2ccccc2F)cc1C(=O)N[C@H]1CCCNC1` [1-(3-((S)-piperidin-3-ylcarbamoyl)-5-(2-fluorophenyl)thiophen-2-yl)urea]: the results for the EC50 in test [1] and in test [2] were 80 nM and 1060 nM, respectively.

For `NC(=O)Nc1sc(-c2cccc(Cl)c2)cc1C(=O)N[C@H]1CCCNC1` [1-(3-((S)-piperidin-3-ylcarbamoyl)-5-(3-chlorophenyl)thiophen-2-yl)urea], the results for the EC50 in test [1] and in test [2] were 40 nM and 1200 nM, respectively.

Take `NC(=O)Nc1sc(-c2cccc(F)c2)cc1C(=O)N[C@H]1CCCNC1` [1-(3-((S)-piperidin-3-ylcarbamoyl)-5-(3-fluorophenyl)thiophen-2-yl)urea]: the EC50 in test [1] stood at 20 nM; in test [2], 840 nM.

In the case of `N#Cc1ccc(-c2cc(C(=O)N[C@H]3CCCNC3)c(NC(N)=O)s2)cc1` [(S)-1-(5-(4-cyanophenyl)-3-(piperidin-3-ylcarbamoyl)thiophen-2-yl)urea], the EC50 in test [1] came to 8 nM; in test [2], 1700 nM.

Regarding `NC(=O)Nc1sc(-c2ccc(F)cc2)cc1C(=O)N[C@H]1CCCNC1` [(S)-1-(5-(4-fluorophenyl)-3-(piperidin-3-ylcarbamoyl)thiophen-2-yl)urea], the EC50 in test [1] turned out to be 30 nM; in test [2] it was 600 nM.
